From US20080201871A1, “ANTIMICROBIAL COLORANTS” (The Regents of the University of California, priority 2003, published 2008)

Experiments:
[1] = system: Escherichia coli (E. coli, K-12, Gram-negative); test: Minimum inhibitory concentration (MIC) procedure in aqueous solution; assay type: cell-based; conditions: 10^7~10^8 CFU/mL, contact time: 24 hr, MIC = minimum concentration giving more than 4 log reductions
Description: (§1) Antimicrobial activity of the agents in aqueous solution was evaluated by a minimum inhibitory concentration (MIC) procedure ([…]. et al., Pharm. Sci., 65(12):1737 (1976)). MIC refers to the lowest concentration of biocides that prohibit population and reproduction of microorganisms. […] Antimicrobial properties of the antimicrobial colorants in aqueous solutions were measured by the MIC procedure.

[2] = system: Staphylococcus aureus (S. aureus, ATCC #12600, Gram-positive); test: as above; assay type: cell-based; conditions: 10^7~10^8 CFU/mL, contact time: 24 hr, MIC = minimum concentration giving more than 4 log reductions
Description: as §1

E. coli [3] = test: Antimicrobial efficacy (log reduction) at fixed concentration and contact time; assay type: cell-based, Escherichia coli; conditions: for Antimicrobial efficacy (Log reduction): contact time 1 minute; for Antimicrobial efficacy (Log reduction) / Antimicrobial Efficacy (log reduction): 10 ppm
Description: Antimicrobial activity of the agents in aqueous solution was evaluated by a minimum inhibitory concentration (MIC) procedure (Kaminski, J. J., Hyycke, N. M. et al., Pharm. Sci., 65(12):1737 (1976)). MIC refers to the lowest concentration of biocides that prohibit population and reproduction of microorganisms. In this method, 1 mL of an aqueous suspension containing 10^6˜10^7 colony-forming units (CFU)/mL of Staphylococcus aureus (S. aureus, ATCC #12600, Gram-positive) or Escherichia coli (E. coli, K-12, Gram-negative) were placed into 9 mL aqueous solutions containing different concentrations of the agents for a contact time of 24 hours. After the contact, a 100 μL aliquot of the resultant solution was serially diluted by sterilized distilled water to 10^1, 10^2, 10^3, 10^4 and 10^5. 100 μL of the last four dilutions were placed onto a nutrient agar plate and incubated at 37° C. for 24 hours. The same procedure was applied to a distilled water solution without the antimicrobial agents as a control. In this paper, the reported MIC of the antimicrobial colorants is the minimum concentrations that can eliminate more than 4 log reductions of bacteria (1 log reduction is 90%, 2 log reduction is 99%, and so forth).
To better study the biocidal rate of these colorants, the antimicrobial efficacy of the colorants in terms of log reduction is assessed against E. Coli under different contact time ranging from 15 minutes to 24 hours.
Next, the antimicrobial efficacy of the colorants is further challenged by reducing the contact time down to 1 minute at the concentration of 10 ppm.

S. aureus = test: as above; assay type: cell-based, Staphylococcus aureus; conditions: contact time 1 minute, 10 ppm
[4] = Stability study of colorant solutions by UV-vis absorbance; assay type: physicochemical; conditions: 100 ppm aqueous; 100° C. for 4 hours
Description: The stability of the antimicrobial colorants was qualitatively studied by using a UV-vis spectrophotometer under different experimental conditions. The tests were performed with antimicrobial colorant solutions at the concentration of 100 ppm in flasks. The colorants were sampled and the absorbance at the maximum absorption wavelength was tested before treatment as a reference. After visible light exposure in a conditioning room for over 30 days, or heating at boiling for 4 hours, or changing to different pH conditions (pH=4 and 10) for over 24 hours, the solutions were sampled, centrifuged, filtered and tested by UV. The new UV-vis spectra were taken and compared with the control.
The stability of the antimicrobial colorants is of great importance because they are mostly applied in aqueous solutions as biocides or dyes. All stability tests were conducted at a concentration of 100 ppm.
In practical applications, these colorants could be used under either acidic or basic conditions, particularly in coloration of acrylics, nylon and wool. For example, acidic dye bath is preferred for dyeing wool fabrics. Thus, the stability of the colorants in low or high pH solution is more important for textile applications. […] The low stability of those colorants was caused by hydrolysis of an amide linkage between QAS and aminoanthraquinone. […]

E. coli [5] = test: Antimicrobial efficacy (log reduction) at fixed concentration and contact time; assay type: cell-based, Escherichia coli; conditions: E. coli 10^7~10^8 CFU/ml; for Antimicrobial Efficacy (log reduction): 10 ppm

Structure (SMILES)	MIC of cationic colorants [1] [ppm]	MIC of cationic colorants [2] [ppm]	Change of UV-vis absorbance after heating [4]	Change of UV-vis wavelength after heating [4]	Antimicrobial efficacy (Log reduction) (E. coli [3])	Antimicrobial Efficacy (log reduction) (E. coli [3]; contact time 0.25 hr)	Antimicrobial Efficacy (log reduction) (E. coli [3]; contact time 0.5 hr)	Antimicrobial Efficacy (log reduction) (E. coli [3]; contact time 1 hr)	Antimicrobial Efficacy (log reduction) (E. coli [3]; contact time 2 hr)	Antimicrobial Efficacy (log reduction) (E. coli [3]; contact time 4 hr)	Antimicrobial Efficacy (log reduction) (E. coli [3]; contact time 8 hr)	Antimicrobial Efficacy (log reduction) (E. coli [3]; contact time 16 hr)	Antimicrobial Efficacy (log reduction) (E. coli [3]; contact time 24 hr)	Antimicrobial efficacy (Log reduction) (S. aureus)	Biocidal activity compared with CTAB, CPC and Benzalkonium chloride (E. coli [3]; Table 6 conditions)	Antimicrobial Efficacy (log reduction) (E. coli [5])	Log reduction (E. coli [5]; 5 ppm, contact time 1 minute) [Log reduction]
CCCC[N+](C)(C)CC(O)CNc1ccc(NCC(O)C[N+](C)(C)CCCC)c2c1C(=O)c1ccccc1C2=O.[Cl-].[Cl-] (centres unmarked) [Di-4]	200	200	–	–	0	0	0	0	0	0	0	0	0	0	–	–	–
CCCCCCCCCCCCCCCC[N+](C)(C)CC(O)CNc1cccc2c1C(=O)c1ccccc1C2=O.[Cl-] (centres unmarked) [Compound M-16]	60	60	–	–	0	–	–	–	–	–	–	–	–	0	–	–	–
CCCCCCCCCCCCCCCC[N+](C)(C)C.[Br-] [CTAB, Cetyltrimethyl ammonium bromide, reference compound]	–	–	–	–	–	–	–	–	–	–	–	–	–	–	–	0	–
CCCCCCCCCCCCCCCC[N+](C)(C)Cc1ccccc1.[Cl-] [Benzalkonium chloride, Benzyldimethyl-hexadecylammonium chloride, reference compound]	–	–	–	–	–	–	–	–	–	–	–	–	–	–	–	2	–

More lines, main results first:

MIC of cationic colorants [1] [ppm]	MIC of cationic colorants [2] [ppm]	Change of UV-vis absorbance after heating [4]	Change of UV-vis wavelength after heating [4]	Structure (SMILES)	Antimicrobial efficacy (Log reduction) (E. coli [3])	Antimicrobial Efficacy (log reduction) (E. coli [3]; contact time 0.25 hr)	Antimicrobial Efficacy (log reduction) (E. coli [3]; contact time 0.5 hr)	Antimicrobial Efficacy (log reduction) (E. coli [3]; contact time 1 hr)	Antimicrobial Efficacy (log reduction) (E. coli [3]; contact time 2 hr)	Antimicrobial Efficacy (log reduction) (E. coli [3]; contact time 4 hr)	Antimicrobial Efficacy (log reduction) (E. coli [3]; contact time 8 hr)	Antimicrobial Efficacy (log reduction) (E. coli [3]; contact time 16 hr)	Antimicrobial Efficacy (log reduction) (E. coli [3]; contact time 24 hr)	Antimicrobial efficacy (Log reduction) (S. aureus)	Biocidal activity compared with CTAB, CPC and Benzalkonium chloride (E. coli [3]; Table 6 conditions)	Antimicrobial Efficacy (log reduction) (E. coli [5])	Log reduction (E. coli [5]; 5 ppm, contact time 1 minute) [Log reduction]
60	60	–	–	CCCCCCCCCCCCCCCC[N+](C)(C)CC(O)CNc1ccc(NCC(O)C[N+](C)(C)CCCCCCCCCCCCCCCC)c2c1C(=O)c1ccccc1C2=O.[Cl-].[Cl-] (centres unmarked) [Di-16]	0	–	–	–	–	–	–	–	–	0	–	–	–
4	4	slight increases in absorbance	negligible change	CCCCCCCCCCCC[N+](C)(C)CC(O)CNc1ccc(NCC(O)C[N+](C)(C)CCCCCCCCCCCC)c2c1C(=O)c1ccccc1C2=O.[Cl-].[Cl-] (centres unmarked) [Di-12]	–	>4	>4	>4	>4	>4	>4	>4	>4	–	more efficient in biocidal activity than the other three bactericides	>5	–
5	5	–	–	CCCCCCCC[N+](C)(C)CC(O)CNc1ccc(NCC(O)C[N+](C)(C)CCCCCCCC)c2c1C(=O)c1ccccc1C2=O.[Cl-].[Cl-] (centres unmarked) [Di-8]	–	>4	>4	>4	>4	>4	>4	>4	>4	–	–	–	1
